Experimental data as given in patent US6525089B1, “Pharmaceutical composition containing decursin” (Binex Co., Ltd., priority 1998, dated 2003).
Several values for one entry are separate records, joined by “and”; a condition that tells them apart may be missing. Identical values can stand only once. Like-named read-outs stand apart in the source and are kept apart here.

Tests used:
[1] = Body weight, alloxan-treated mice; format: in vivo; details: ICR mice, alloxan + decursin 50 mg/kg orally for 10 days
Method: 2 days after ICR mice were given alloxan (75 mg/kg, i.v.), their glucose levels at fasting were measured to select high-glucose mice. The high-glucose mice were divided into two groups; physiological saline solution was given to one group, while decursin was orally administered to the other group at a dose of 50 mg/kg for 10 days. The alloxan-free group was also orally given physiological saline solution for 10 days. The body weighs were checked periodically, together with urinary tests. To isolate their sera and kidney, mice were slightly anesthetized with ether and their abdomens were dissected. The blood samples were collected from heart to isolate the sera. The kidney was perfused with 0.9% NaCl and isolated after removal of the blood. Then the weight of right kidney was measured. Further, to measure the protein amount from the kidney tissues, these tissues were assayed according to the Bradford method using Bio-Rad protein assay kit in the presence of bovine serum albumin as a reference standard. […] The supernatant was collected to measure the absorbance at 532 nm. […] The supernatant was collected to measure the absorbance at 532 nm. […]

normal cells (LLC-PK1) = assay: Cytotoxicity test on normal cells; format: cell-based; details: 3 days
Method: To determine the cytotoxicity of decursin on normal cells, they were sub-cultured in a medium-199 containing, 3% fetal bovine serum (FBS), penicillin (100 U/ml) and streptomycin (100 μg/ml) every 3 to 4 day. Then cells were treated with trypsin to prepare a cell suspension. 1 ml of the cell suspension was seeded on 24-well plate at a concentration of 2×10^5 in cells/ml an d attached to the medium for one day. After the supernatant was removed, 1 ml of decursin was added to the cell culture medium at appropriate concentrations and incubated for 3 days to count the cell numbers.

[2] = format: in vivo, rat; details: individual rats 1-4, start 200 g, four days after treatment
Method: A total of 10 male SD rats (body weight: 200 g) were used for this experiment. […] The animals were sacrificed and again weighed four days after treatment. […] Blood samples were also taken and left to sit for 30 minutes to isolate the sera, which was used to determine BUN, creatinine and sGPT values as markers of […].

CC(C)=CC(=O)O[C@H]1Cc2cc3ccc(=O)oc3cc2OC1(C)C [decursin]
weight loss of the alloxan-treated group [1]: significantly reduced | Growth inhibition rate (%) (normal cells (LLC-PK1); 1 × 10^−6M): 0.0 ± 0.0% | Growth inhibition rate (%) (normal cells (LLC-PK1); 1 × 10^−7M): 0.0 ± 0.0% | Growth inhibition rate (%) (normal cells (LLC-PK1); 1 × 10^−8M): 0.0 ± 0.0% | Growth inhibition rate (%) (normal cells (LLC-PK1); 5 × 10^−7M): 0.0 ± 0.0% | Growth inhibition rate (%) (normal cells (LLC-PK1); 5 × 10^−8M): 0.0 ± 0.0% | Body weight ([2]; post-treatment group (decursin after cisplatin)): 190 g and 185 g and 180 g (2×) | Body weight ([2]; pre-treatment group (decursin before cisplatin)): 184 g and 190 g and 180 g (2×)
